Laboratory results: ChEMBL document CHEMBL1201862, “PubChem BioAssay data set” (2004)
Active and inactive are the calls of the source.

Tests used:
[1] = inhibitors of firefly luciferase expression or activity, dose response, H4 neuroglioma cells, luminescence (AID 1990); type: functional, cell-based
HeLa = assay: Cytotoxicity counterscreen assay for transcriptional activators of heat shock protein 70 (Hsp70). [Related pubchem assays: 1203, 1252 ]; type: functional; conditions: Homo sapiens
BJ [2] = assay: cytotoxicity toward BJ-TERT fibroblasts, dose response, cell-based, RAS-independent, luminescence (AID 1933); type: functional; conditions: Homo sapiens
[3] = Luminescence Cell-Based Dose Response HTS to Identify Inhibitors of 5'UTR Stem-Loop Driven Prion Protein mRNA Translation in H4 Neuroglioblastoma Cells. [Related pubchem assays: 1827 (Project Summary), 1813 (Primary HTS)]; type: functional
[4] = inhibitors of SNCA 5'UTR-driven reporter translation, confirmation, H4 neuroglioma cells, luminescence (AID 1988); type: functional, cell-based
BJ [5] = assay: cells; type: functional, cell-based; conditions: Homo sapiens
[6] = molecular target: G-protein coupled receptor 55 (Homo sapiens, UniProt Q9Y2T6); assay: GPR55 antagonists blocking LPI-driven arrestin recruitment, primary screen, imaging, U2OS, beta-arrestin-GFP, LPI agonist (AID 2013); type: functional;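 further: antagonist potency measured as reduced agonist-driven arrestin aggregation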
BJ [7] = assay: cytotoxicity toward BJ-TERT-LT-ST fibroblasts, dose response, cell-based, RAS-independent, luminescence (AID 1935); type: functional; conditions: Homo sapiens;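 further: BJ fibroblasts immortalized with TERT plus LT and ST oncogenes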
[8] = cytotoxicity toward DRD oncogenic fibroblasts, dose response, cell-based, non-viral oncogenic, luminescence (AID 1934); type: functional; conditions: Homo sapiens
[9] = molecular target: T1, Heat shock protein HSP 90-alpha (Homo sapiens, UniProt P07900); type: functional, organism-based
BJ [10] = assay: cytotoxicity toward Ras-transformed BJeLR fibroblasts, dose response, cell-based, alamar blue fluorescence, cherrypicked samples (AID 2631); type: functional; conditions: Homo sapiens;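 further: confirmatory dose-response assay in RAS-dependent BJ fibroblasts engineered with TERT, LT and ST, with cytotoxicity read by fluorescence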
[11] = luciferase reporter signal reduction – luminescence, H4-C neuroglioblastoma cells, dose response (AID 2458); type: functional, cell-based;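 further: H4 neuroglioblastoma cells stably carrying a luciferase reporter gene fusion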
cells = type: functional, cell-based
[12] = molecular target: T2, Heat shock factor protein 1 (Mus musculus, UniProt P38532); assay: inhibition of MG132-induced HSE-luciferase signal, confirmation, cell-based, NIH3T3, luminescence, dose retest (AID 2382); type: functional;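 further: NIH3T3 fibroblasts with HSF1-driven luciferase reporter stressed by proteasome inhibitor MG132; luminescence from HSF1-driven luciferase expression after 8 hours of MG132 stress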
T2 sequence (P38532 whole entry): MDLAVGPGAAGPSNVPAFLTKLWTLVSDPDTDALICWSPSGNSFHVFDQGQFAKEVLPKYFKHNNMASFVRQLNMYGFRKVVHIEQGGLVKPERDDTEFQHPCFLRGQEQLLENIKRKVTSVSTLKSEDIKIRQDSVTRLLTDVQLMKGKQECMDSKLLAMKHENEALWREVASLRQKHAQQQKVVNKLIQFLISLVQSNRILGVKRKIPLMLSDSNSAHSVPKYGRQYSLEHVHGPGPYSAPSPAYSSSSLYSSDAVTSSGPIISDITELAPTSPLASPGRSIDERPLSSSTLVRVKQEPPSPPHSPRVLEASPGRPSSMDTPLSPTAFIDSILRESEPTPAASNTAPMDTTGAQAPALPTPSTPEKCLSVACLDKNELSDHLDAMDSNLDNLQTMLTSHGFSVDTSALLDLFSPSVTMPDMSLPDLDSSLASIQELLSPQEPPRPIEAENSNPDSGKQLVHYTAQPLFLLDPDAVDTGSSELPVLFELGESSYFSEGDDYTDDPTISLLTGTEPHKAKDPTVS

[13] = molecular target: T1, Heat shock protein HSP 90-alpha; assay: Luminescence-based dose response biochemical high throughput screening assay for inhibitors of the Heat Shock Protein 90 (HSP90). [Related pubchem assays: 1831 (Summary AID.), 1846 (Confirmation screen.), 1789 (Primary screen.)]
[14] = inhibitors of SNCA 5'UTR-driven translation, confirmation, luminescence, H4 neuroglioblastoma cells, dose confirmation (AID 2454); type: functional, cell-based;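 further: H4 neuroglioblastoma cells carrying an alpha-synuclein 5'UTR luciferase reporter; potency for inhibition of the luciferase signal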
Jurkat = assay: antigen receptor-induced NF-kB inhibitors, dose response, Jurkat, luciferase reporter, luminescence, B- and T-cell (AID 489004); type: functional, cell-based; conditions: Homo sapiens;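 further: NF-kB luciferase reporter Jurkat cells stimulated with PMA plus ionomycin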
[15] = cytotoxicity in HEK-293T NF-kB-Luc cells, dose response, cytotoxicity control for B/T-cell NF-kB inhibitor project, cell-based, uHTS hits (AID 489019); type: functional;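 further: IC50 reflects cytotoxicity as loss of cell viability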
[16] = molecular target: Luciferin 4-monooxygenase (Photuris pensylvanica, UniProt Q27757); assay: firefly luciferase enzyme inhibitors, dose response, counter-screen for HSF-1 reporter inhibitor project, biochemical, Cell Titer Glo, luminescence, cherry-picks (AID 588847)
[17] = Shn3 3'UTR reporter inhibitors, dose response, cell-based, Clone20 osteoblasts, firefly luciferase, cherry-picked (AID 624132); type: functional;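 further: firefly luciferase luminescence from reporter carrying the Shn3 3'UTR in osteoblasts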
[18] = inhibitors of HIV Env-driven cell fusion, dose response, cherry-pick (AID 652057); type: functional, cell-based
[19] = ZM109 Env clade C HIV-1 fusion inhibitors, dose response, HeLa effector, CEM target cells, luciferase, cherry-pick (AID 652058); type: functional, cell-based
[20] = off-target signal loss in HeLa-CEM21 co-culture – HeLa F-luc CTL cells, cherry-picked, counter-screen for HIV-1 Env fusion inhibitor project, dose response (AID 652040); type: functional, cell-based;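 further: potency for signal decrease marking cytotoxic or nonspecific inhibition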
[21] = inhibitors of clade B AD8 Env fusion, dose response, cell-based, cherry-pick (AID 652062); type: functional;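 further: luciferase signal from cell-cell fusion driven by HIV-1 clade B AD8 Env; potency is for inhibitors of fusion seen as a drop in luminescence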
[22] = reduction of Shn3 3'UTR firefly luciferase signal, dose response, Schnurri-3 inhibitor project, cell-based, Clone20 osteoblasts, cherry-pick, set 2 (AID 720490); type: functional;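 further: actives lower the luminescence signal as inhibitors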
[23] = inhibitors of control Renilla luciferase reporter, dose response, counter-screen for Shn3 3'UTR targeting project, Clone20-Shn3RL cells, dual-Glo, cherry-pick, set 2 (AID 720724); type: functional, cell-based; conditions: Dual-Go Shn3RL
[24] = LGR2 antagonists, dose response, cell-based, HEK293, CRE-luciferase reporter, cherry pick, set 2 (AID 743343); type: functional;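 further: transfected cells were stimulated with diluted bursicon conditioned medium after compound addition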
[25] = MC4R antagonists, dose response, counter-screen for LGR2 antagonist project, cell-based, plate reader, cherry pick (AID 743444); type: functional;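 further: transfected HEK 293 cells stimulated with alpha-MSH peptide; potency of inhibitors of the alpha-MSH evoked signal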
[26] = molecular target: Serine/threonine-protein phosphatase PP1-alpha catalytic subunit (Homo sapiens, UniProt P62136); assay: PP1 phosphatase inhibitors, dose response, biochemical, fluorescence (AID 2394)
[27] = tested on: Streptococcus sp. 'group A'; assay: growth inhibition of control SK(-) GAS strain, dose response, counter-screen for streptokinase expression inhibitor project, luminescence, kanamycin, BacTiterGlo, confirmation (AID 1900); type: functional, organism-based
Streptokinase A = molecular target: T3, Streptokinase A (Streptococcus pyogenes serotype M1, UniProt P10520); assay: S. pyogenes streptokinase expression inhibitors, potency, dose response, plasminogen activation absorbance, OD405 (AID 1914); type: functional, Streptococcus pyogenes M1 GAS;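 further: secreted streptokinase activity via plasminogen activation per viability signal from cell pellet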
T3 sequence (P10520 whole entry): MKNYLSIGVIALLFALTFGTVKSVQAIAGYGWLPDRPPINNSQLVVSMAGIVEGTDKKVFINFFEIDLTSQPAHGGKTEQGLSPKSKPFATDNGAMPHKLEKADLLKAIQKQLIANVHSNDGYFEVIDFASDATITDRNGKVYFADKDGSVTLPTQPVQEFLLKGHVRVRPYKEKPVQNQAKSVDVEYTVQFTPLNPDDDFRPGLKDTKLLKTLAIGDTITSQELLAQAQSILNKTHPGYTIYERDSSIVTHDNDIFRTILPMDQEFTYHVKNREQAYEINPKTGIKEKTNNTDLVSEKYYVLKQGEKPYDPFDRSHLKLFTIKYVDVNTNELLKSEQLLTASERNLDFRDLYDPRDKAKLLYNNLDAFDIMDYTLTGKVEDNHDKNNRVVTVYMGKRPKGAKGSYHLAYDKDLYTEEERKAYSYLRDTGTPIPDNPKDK

[28] = inhibitors of intracellular T. cruzi replication, confirmation, NIH3T3 host cells, beta-gal luminescence (AID 2044); type: functional, cell-based;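 further: intracellular parasites grown in NIH/3T3 mouse fibroblasts as host cells; luminescent beta-galactosidase reporter signal from transgenic T. cruzi replicating inside host cells; inhibitors lower the luminescence signal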
[29] = molecular target: Protein-tyrosine kinase 2-beta (Homo sapiens, UniProt Q14289);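 further: potency of inhibitors of PYK2 kinase phosphorylation of poly-GT substrate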
[30] = molecular target: Serine/threonine-protein phosphatase (Homo sapiens, UniProt Q9BPW0); assay: PP5 phosphatase inhibitors, dose response, biochemical, fluorescence (AID 2395)
[31] = cytotoxicity toward NIH3T3 fibroblasts, dose response, counter-screen, cell-based, ATP luminescence, mouse fibroblasts (AID 2010); type: functional;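 further: cells exposed to compound for about 90 hours before reading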
[32] = enhancers of respiration in Yfh1-depleted yeast, dose response, Friedreich's ataxia, plus single-dose screen (AID 1465); type: functional;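 further: yeast depleted of Yfh1p frataxin homolog grown on glycerol needing respiration; WST-1 tetrazolium dye reduction as measure of cellular dehydrogenase metabolic activity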
Streptococcus = assay: Group A Streptococcus viability loss, dose response, counter-screen for streptokinase expression inhibitor project, luminescence, BacTiterGlo (AID 1915); type: functional, organism-based;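 further: potency for reduction of bacterial viability or growth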
[33] = molecular target: T4, Apoptotic protease-activating factor 1 (Homo sapiens, UniProt O14727); type: functional
T4 sequence (O14727 whole entry): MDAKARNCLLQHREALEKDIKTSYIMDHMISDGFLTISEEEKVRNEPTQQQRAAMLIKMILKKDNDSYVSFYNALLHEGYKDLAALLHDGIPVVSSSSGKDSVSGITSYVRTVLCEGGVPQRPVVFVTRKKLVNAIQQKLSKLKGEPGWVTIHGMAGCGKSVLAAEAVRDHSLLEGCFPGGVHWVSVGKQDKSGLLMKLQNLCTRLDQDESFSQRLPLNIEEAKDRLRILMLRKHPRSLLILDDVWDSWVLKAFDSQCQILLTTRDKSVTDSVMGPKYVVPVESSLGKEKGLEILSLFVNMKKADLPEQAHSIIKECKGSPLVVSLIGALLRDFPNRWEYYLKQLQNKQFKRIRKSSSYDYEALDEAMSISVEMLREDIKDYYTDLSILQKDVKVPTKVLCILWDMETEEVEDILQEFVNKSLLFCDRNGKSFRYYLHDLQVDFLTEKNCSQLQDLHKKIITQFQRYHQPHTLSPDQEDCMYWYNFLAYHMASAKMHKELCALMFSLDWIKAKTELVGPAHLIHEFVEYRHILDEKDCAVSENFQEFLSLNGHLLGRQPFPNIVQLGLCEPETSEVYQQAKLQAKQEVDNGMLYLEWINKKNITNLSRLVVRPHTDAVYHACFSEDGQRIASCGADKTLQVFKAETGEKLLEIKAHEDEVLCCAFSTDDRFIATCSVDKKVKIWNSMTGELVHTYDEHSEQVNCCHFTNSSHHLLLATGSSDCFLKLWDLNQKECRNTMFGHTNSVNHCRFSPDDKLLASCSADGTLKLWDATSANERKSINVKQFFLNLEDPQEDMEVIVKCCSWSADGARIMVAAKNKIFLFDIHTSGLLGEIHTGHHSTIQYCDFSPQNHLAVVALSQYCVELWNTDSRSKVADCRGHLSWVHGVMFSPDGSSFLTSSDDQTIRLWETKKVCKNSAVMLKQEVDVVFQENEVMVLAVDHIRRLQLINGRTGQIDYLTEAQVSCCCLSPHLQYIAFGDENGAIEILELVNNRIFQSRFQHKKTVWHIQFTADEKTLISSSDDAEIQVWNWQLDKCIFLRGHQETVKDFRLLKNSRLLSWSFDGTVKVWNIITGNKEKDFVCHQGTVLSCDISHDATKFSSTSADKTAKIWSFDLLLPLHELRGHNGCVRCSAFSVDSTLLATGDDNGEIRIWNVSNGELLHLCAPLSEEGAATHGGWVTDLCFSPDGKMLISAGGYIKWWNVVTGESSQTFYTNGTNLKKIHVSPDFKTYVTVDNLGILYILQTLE

INS1 = assay: beta cell apoptosis inhibitors, cytokine rescue, dose response, luminescence, retest (AID 449756); type: functional, cell-based; conditions: Rattus norvegicus;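 further: cell death triggered by IL-1 beta plus TNF-alpha plus IFN-gamma mixture; protective hits raise ATP signal compared with cytokine alone wells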
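Wherever CC50 is given: cells exposed to compound for 16 hours before readout.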

Serine/threonine-protein phosphatase, sequence (Q9BPW0 whole entry): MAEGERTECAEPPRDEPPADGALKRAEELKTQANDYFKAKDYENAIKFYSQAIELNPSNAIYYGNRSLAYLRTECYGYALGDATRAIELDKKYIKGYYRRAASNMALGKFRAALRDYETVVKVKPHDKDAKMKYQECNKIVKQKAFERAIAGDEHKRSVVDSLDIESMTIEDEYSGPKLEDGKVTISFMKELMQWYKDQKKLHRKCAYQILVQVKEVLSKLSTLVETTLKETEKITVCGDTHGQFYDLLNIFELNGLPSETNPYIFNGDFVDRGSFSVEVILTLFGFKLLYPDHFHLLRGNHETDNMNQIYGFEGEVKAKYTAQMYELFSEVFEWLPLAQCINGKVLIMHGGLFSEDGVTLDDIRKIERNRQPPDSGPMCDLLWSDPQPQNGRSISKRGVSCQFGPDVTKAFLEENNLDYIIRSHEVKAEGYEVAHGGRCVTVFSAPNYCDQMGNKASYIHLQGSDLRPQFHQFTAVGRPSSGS
Luciferin 4-monooxygenase, sequence (Q27757 whole entry): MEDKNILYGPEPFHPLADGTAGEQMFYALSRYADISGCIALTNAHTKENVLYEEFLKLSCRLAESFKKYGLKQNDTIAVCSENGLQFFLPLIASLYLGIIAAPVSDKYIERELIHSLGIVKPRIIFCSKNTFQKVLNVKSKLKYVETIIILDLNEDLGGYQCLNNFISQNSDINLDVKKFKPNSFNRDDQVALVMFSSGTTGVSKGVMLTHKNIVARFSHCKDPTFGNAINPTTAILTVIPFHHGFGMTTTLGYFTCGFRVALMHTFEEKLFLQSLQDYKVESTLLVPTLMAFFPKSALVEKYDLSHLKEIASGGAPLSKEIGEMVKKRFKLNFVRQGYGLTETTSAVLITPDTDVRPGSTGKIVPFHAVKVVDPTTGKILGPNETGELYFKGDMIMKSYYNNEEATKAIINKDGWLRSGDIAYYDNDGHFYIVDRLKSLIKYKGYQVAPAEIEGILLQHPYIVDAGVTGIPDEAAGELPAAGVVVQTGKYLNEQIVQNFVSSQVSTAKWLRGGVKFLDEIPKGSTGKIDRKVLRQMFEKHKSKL
G-protein coupled receptor 55, sequence (Q9Y2T6 whole entry): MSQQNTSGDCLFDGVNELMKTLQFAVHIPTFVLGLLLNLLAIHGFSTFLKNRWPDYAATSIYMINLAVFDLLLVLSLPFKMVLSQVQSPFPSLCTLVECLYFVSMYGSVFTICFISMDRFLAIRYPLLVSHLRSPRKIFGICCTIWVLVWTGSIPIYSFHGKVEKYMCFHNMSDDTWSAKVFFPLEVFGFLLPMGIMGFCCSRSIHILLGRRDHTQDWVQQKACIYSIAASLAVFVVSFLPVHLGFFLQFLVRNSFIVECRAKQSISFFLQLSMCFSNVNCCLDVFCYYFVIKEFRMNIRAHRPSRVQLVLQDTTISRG
Protein-tyrosine kinase 2-beta, sequence (Q14289 whole entry): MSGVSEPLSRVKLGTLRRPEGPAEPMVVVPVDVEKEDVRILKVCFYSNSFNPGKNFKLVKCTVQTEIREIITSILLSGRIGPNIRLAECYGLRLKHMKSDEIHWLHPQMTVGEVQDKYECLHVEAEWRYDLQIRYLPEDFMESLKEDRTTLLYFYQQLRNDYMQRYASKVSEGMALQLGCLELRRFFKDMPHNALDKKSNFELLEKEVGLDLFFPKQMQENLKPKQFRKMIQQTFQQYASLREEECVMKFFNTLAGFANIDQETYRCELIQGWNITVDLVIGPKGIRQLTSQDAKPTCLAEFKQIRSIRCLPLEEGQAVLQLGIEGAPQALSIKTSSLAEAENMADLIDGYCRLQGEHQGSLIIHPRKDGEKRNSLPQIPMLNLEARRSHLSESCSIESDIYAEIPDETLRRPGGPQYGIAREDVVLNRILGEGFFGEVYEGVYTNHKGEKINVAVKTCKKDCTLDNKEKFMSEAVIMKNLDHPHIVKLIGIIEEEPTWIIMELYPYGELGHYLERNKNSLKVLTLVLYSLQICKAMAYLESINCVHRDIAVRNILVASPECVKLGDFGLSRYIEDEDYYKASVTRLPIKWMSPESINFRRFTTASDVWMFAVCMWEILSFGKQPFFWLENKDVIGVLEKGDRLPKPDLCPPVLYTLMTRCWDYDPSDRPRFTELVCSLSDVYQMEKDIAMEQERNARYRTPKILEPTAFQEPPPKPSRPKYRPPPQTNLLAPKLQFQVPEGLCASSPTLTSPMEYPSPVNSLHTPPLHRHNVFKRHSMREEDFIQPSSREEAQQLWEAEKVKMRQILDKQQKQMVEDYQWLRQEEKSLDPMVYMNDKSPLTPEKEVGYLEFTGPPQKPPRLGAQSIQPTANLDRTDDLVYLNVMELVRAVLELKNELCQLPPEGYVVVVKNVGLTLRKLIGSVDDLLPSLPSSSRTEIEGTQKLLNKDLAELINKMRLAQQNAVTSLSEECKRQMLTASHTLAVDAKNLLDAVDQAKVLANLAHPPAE
Serine/threonine-protein phosphatase PP1-alpha catalytic subunit, sequence (P62136 whole entry): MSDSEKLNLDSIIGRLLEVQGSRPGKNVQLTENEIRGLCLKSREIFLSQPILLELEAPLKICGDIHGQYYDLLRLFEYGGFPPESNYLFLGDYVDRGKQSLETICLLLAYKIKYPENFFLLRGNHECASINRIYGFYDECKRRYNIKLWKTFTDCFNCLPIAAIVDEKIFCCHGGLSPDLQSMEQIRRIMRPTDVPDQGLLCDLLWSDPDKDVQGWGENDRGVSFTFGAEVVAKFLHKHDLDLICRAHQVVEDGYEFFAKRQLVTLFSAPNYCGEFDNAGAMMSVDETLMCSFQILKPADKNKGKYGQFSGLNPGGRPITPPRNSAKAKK

Which results are given for `CCOC(=O)/C(=C\c1cccnc1)C(=O)c1cc(C(C)=O)c(Nc2ccccc2)s1`?
EC50 [1]: > 120 µM (not active); CC50 (HeLa): 2.91 µM (active); EC50 (BJ [2]): 2.38 µM (inconclusive); EC50 [3]: 8.03 µM (active); EC50 [4]: 8.02 µM (active); EC50 (BJ [5]): 7.78 µM (inconclusive); IC50 [6]: 3.09 µM (active); EC50 (BJ [7]): 6.68 µM (inconclusive); EC50 [8]: 2.34 µM (active); AC50 [9]: 2.18 µM (active); EC50 (BJ [10]): 0.503 µM (active)

Which results are given for `O=C(CN1C(=O)c2ccccc2S1(=O)=O)c1ccc2c(c1)OCCCO2`?
EC50 [1]: < 0.1 µM (active); EC50 [11]: 0.015 µM (active); EC50 (cells): 0.021 µM (active); EC50 [3]: < 0.1 µM (active); EC50 [12]: < 0.16 µM (active); EC50 [4]: < 0.1 µM (active); IC50 [13]: 0.816 µM (active); EC50 [14]: 0.016 µM (active); IC50 (Jurkat): < 0.16 µM (active); IC50 [15]: > 80 µM (inactive); AC50 [16]: > 52 µM (inactive); AC50 [17]: 0.262 µM (active); AC50 [18]: < 0.26 µM (active); AC50 [19]: 0.725 µM (active); AC50 [20]: < 0.26 µM (active); AC50 [21]: < 0.26 µM (active); AC50 [22]: 0.631 µM (active); AC50 [23]: 50.3 µM (active); AC50 [24]: < 0.068 µM (active); AC50 [25]: 0.0695 µM (active)

Which IC50 [26] does the source give for `Cc1ccc(Cl)cc1NC1=C/C(=N\S(=O)(=O)c2cccs2)c2ccccc2C1=O` here?
Its IC50 is 38.9 µM (not active).

And the EC50 [27]?
The EC50 was 0.427 µM (active).

What about the EC50 (Streptokinase A) of the same compound?
The EC50 was > 150 µM (not active).

And the EC50 [28]?
Its EC50 is 1.6 µM (active).

And the IC50 [29]?
Its IC50 is > 69.5 µM (not active).

What about the IC50 [30] of the same compound?
The IC50 was 2.49 µM (active).

And the EC50 [31]?
Its EC50 is 3.19 µM (active).

And the EC50 [32]?
The EC50 was > 100 µM (active).

What about the EC50 (Streptococcus) of the same compound?
The EC50 was 2.98 µM (active).

What about the IC50 [33] of the same compound?
The IC50 was 1.85 µM (active).

What about the AC50 (INS1) of the same compound?
The AC50 was 0.608 µM (active).
